# Like-named read-outs stand apart in the source and are kept apart here.
# Legend:
# [1] = Inhibition of cell proliferation (cytotoxicity) in herpesvirus screening; assay type: cell-based, human; settings: human, human foreskin fibroblast cells
# Varicella Zoster Virus = experiment: Plaque reduction assay for VZV (Ellen strain); assay type: cell-based; settings: Human alphaherpesvirus 3
# Procedure: (§1) Additional antiviral testing was carried out to test the efficacy of compounds of the invention against human cytomegalovirus (HCMV) and another herpesvirus, Variecella Zoster Virus(VZV). The compounds tested were compound (1), the HCl salt of compound (1), Compounds 211, 43, 213 and 214.
# Epstein Barr virus (EBV) = experiment: Antiviral screening against Epstein Barr virus; assay type: cell-based; settings: human gammaherpesvirus 4; read-out: anti-EBV activity EC50
# Human Cytomegalovirus = experiment: Semi-automated CPE-inhibition assay for HCMV in human foreskin fibroblast cells; assay type: cell-based; settings: Human betaherpesvirus 5
# Procedure: as §1
smiles,measurement,setting,value
"C=C1CN(S(=O)(=O)c2ccc(C)cc2)CCCN(C(=O)OCC)CCCN(S(=O)(=O)c2ccc(C)cc2)C1 [Compound 213, 9-(Ethyloxycarbonyl)-3-methylene-1,5-ditosyl-1,5,9-triazacyclododecane]",CC50,"[1]; inhibit cell proliferation by 50%, HCMV CPE-inhibition screen, read-out: Human Cytomegalovirus CC50",167 µM
same,CC50,"[1]; inhibit cell proliferation by 50%, VZV screen, read-out: Varicella Zoster Virus CC50",> 180 µM
same,CC50,"[1]; with anti-EBV screen, read-out: CC50",> 180 µM
same,EC50,Varicella Zoster Virus,170 µM
same,EC50,Epstein Barr virus (EBV),6.7 µM
same,EC50,Human Cytomegalovirus,3 µM
